From PubChem BioAssay (NCI)
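Test compounds were applied to cells in 96-well plates for 48 hours at 5 doses. GI50 is the concentration that inhibits growth by half. TGI marks complete inhibition of growth.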

Legend:
Assay in all cases: inhibition of tumour cell growth, NCI panel, 48 h
SF-539 CNS = tested on: SF-539 CNS
TK-10 renal = tested on: TK-10 renal
COLO 205 colon = tested on: COLO 205 colon
DU-145 prostate = tested on: DU-145 prostate
CCRF-CEM leukemia = tested on: CCRF-CEM leukemia
UACC-257 melanoma = tested on: UACC-257 melanoma
EKVX NSCLC = tested on: EKVX NSCLC
SR leukemia = tested on: SR leukemia
K-562 leukemia = tested on: K-562 leukemia
M14 melanoma = tested on: M14 melanoma

Row | Structure (SMILES) | TGI (SF-539 CNS) [µM] | TGI (TK-10 renal) [µM] | TGI (COLO 205 colon) [µM] | TGI (DU-145 prostate) [µM] | TGI (CCRF-CEM leukemia) [µM] | TGI (UACC-257 melanoma) [µM] | TGI (EKVX NSCLC) [µM] | TGI (SR leukemia) [µM] | TGI (K-562 leukemia) [µM] | TGI (M14 melanoma) [µM] | GI50 (SF-539 CNS) [µM] | GI50 (TK-10 renal) [µM] | GI50 (COLO 205 colon) [µM] | GI50 (DU-145 prostate) [µM] | GI50 (CCRF-CEM leukemia) [µM] | GI50 (UACC-257 melanoma) [µM] | GI50 (EKVX NSCLC) [µM] | GI50 (SR leukemia) [µM] | GI50 (K-562 leukemia) [µM] | GI50 (M14 melanoma) [µM]
1 | CC(=O)OC1CC[C@@]2(C)C(CC[C@]3(C)C2CC=C2[C@@H]4C(C)[C@H](C)CCC4(C)CCC23C)[C@@]1(C)C(=O)O (stereo partly drawn) | 51.8 | 30.7 | 45 | 33.2 | 66.3 | 40.9 | 43.3 | 70.6 | 86.9 | 52.4 | – | – | – | – | – | – | – | – | – | –
2 | Cc1cc(Cl)ccc1Nc1nc(C(F)(F)F)ccc1C(=O)N/N=C/c1ccccc1Cl | 3.6 | 16.1 | 2.1 | > 27.6 | 4.78 | 10.2 | 7.23 | 0.768 | – | 7.83 | 1.22 | 1 | 0.727 | 1.62 | 0.341 | 2.24 | 0.894 | 0.188 | 0.588 | 0.874
3 | O=c1oc2ccc(-c3ccc(F)cc3F)cc2c(=O)n1-c1ccc(Cl)c(C(F)(F)F)c1 | 7.09 | 19.1 | 8.54 | > 100 | 8.75 | 6.44 | 7.54 | 8.8 | > 100 | 6.79 | 2.54 | 4.41 | 2.89 | 3.75 | 2.63 | 1.85 | 2.18 | 2.43 | 2.38 | 2.45
4 | Oc1[nH]c2ccccc2c1N=Nc1c(F)c(F)c(F)c(F)c1F | > 100 | 62.8 | 28.3 | > 100 | 16.5 | > 71.5 | > 100 | 14.4 | 33.5 | > 100 | – | – | – | – | – | – | – | – | – | –
5 | O=S(=O)(Nc1ccc(F)c(Cl)c1)c1ccc(-c2cnc(C3CC3)o2)cc1 | 1.8 | 8.29 | 4.69 | 12.2 | 28.9 | 10.1 | 11.9 | > 42.3 | > 52.8 | 7.13 | 0.305 | 1.11 | 0.375 | 0.592 | 0.318 | 1.12 | 0.609 | 0.0838 | 0.0623 | 0.264
6 | COc1cc(/C=C/c2cc(/C=C/c3ccc(O)c(OC)c3)n(C(=O)Nc3ccc(Cl)cc3)n2)ccc1O | 2.41 | 6.18 | 3.43 | 1.67 | > 21.4 | 6.81 | 9.62 | – | 1.34 | 1.4 | 0.501 | 0.966 | 1.95 | 0.382 | 0.298 | 1.26 | 1.61 | 0.106 | 0.306 | 0.37
7 | Cc1cc(Nc2cc(N3CCN(C)CC3)nc(Sc3ccc(NC(=O)C4CC4)cc3)n2)n[nH]1 | > 10 | > 10 | 7.32 | > 10 | > 10 | > 10 | > 10 | > 10 | > 10 | > 10 | 1.92 | > 10 | 0.0456 | > 10 | 0.00613 | 3.52 | > 10 | 0.0594 | 0.232 | 1.48
8 | Cc1cccc(NC(=O)/C=C/c2ccc([N+](=O)[O-])cc2)c1 | > 74.1 | > 56.8 | > 56.3 | > 55 | > 100 | > 55.1 | > 56.5 | > 24.5 | > 100 | > 59.4 | – | – | – | – | – | – | – | – | – | –
9 | O=C1c2ccccc2C(=O)c2sc(Nc3ccccc3Cl)nc21 | 31.4 | 34.2 | 29 | 31.4 | 9.56 | 21.4 | 22.2 | 12.1 | 6.8 | 13.1 | – | – | – | – | – | – | – | – | – | –
10 | C#COc1cccc(Nc2ncnc3cc(NC(=O)[C@H](C)Cl)ccc23)c1 | > 62.5 | > 62.5 | > 62.5 | > 62.5 | > 62.5 | > 62.5 | > 62.5 | > 62.5 | > 62.5 | > 62.5 | 2.85 | 23.6 | 3.86 | 6.09 | 2.41 | > 62.5 | 17.4 | 2.87 | 2.03 | 2.27
11 | Nc1nc(=O)n([C@@H]2CS[C@H](CO)O2)cc1F | > 100 | > 100 | > 100 | > 100 | > 100 | > 100 | > 100 | > 100 | > 100 | > 100 | > 100 | > 100 | > 100 | > 100 | > 100 | > 100 | > 100 | > 100 | > 100 | > 100
